According to US20240245677A1, “SELECTED COMPOUNDS FOR TARGETED DEGRADATION OF BRD9” (C4 THERAPEUTICS, INC., priority 2021, published 2024):
Where two headings read alike, the source gives them in different places.

Experiments:
BRD7 = biological target: T1, BRD7 (Homo sapiens, UniProt Q9NPI1); test: BRD7 HiBiT degradation assay in HEK293T.167 cells; type: cell-based
T1 construct: endogenously expressing BRD7 with HiBiT fusion tag via CRISPR; host or cells: HEK293T.167 (293T.167, BRD7-HiBiT HEK293, LgBiT by lentivirus)
T1 sequence (Q9NPI1 1-651): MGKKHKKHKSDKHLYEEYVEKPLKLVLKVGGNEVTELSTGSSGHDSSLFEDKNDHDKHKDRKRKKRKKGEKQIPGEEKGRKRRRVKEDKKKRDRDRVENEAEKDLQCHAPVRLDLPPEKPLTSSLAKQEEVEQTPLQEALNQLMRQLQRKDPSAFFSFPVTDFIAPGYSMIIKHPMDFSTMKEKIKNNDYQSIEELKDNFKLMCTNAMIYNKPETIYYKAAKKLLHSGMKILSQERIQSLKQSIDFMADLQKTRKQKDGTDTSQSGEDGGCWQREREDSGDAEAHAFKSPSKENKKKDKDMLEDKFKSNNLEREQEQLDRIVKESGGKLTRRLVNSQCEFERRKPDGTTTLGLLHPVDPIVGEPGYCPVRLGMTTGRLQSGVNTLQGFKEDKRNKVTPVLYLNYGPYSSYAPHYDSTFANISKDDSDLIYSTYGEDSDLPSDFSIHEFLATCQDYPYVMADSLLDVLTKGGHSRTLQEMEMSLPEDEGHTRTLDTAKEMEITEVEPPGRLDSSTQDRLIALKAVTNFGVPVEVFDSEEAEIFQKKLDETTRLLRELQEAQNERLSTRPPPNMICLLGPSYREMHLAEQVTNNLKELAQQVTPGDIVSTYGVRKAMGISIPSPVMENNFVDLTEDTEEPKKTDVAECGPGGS

[1] = tested on: Yamato-SS synovial sarcoma cell line; test: Global proteomics in Yamato-SS cells; type: cell-based, human; settings: 100 nM, 4 hours; for Emax at 0.1 µM: Homo sapiens
Procedure: Global protein expression was performed in Yamato-SS and HSSYII synovial sarcoma cell lines after 4-hour treatment with Compound 1 (100 nM). The Yamato-SS cell line was provided by the RIKEN BRC through the National BioResource Project of the MEXT/AMED, Japan (cat #RCB3577), and the HS-SY-II cell line was provided by the RIKEN BRC through the National BioResource Project of the MEXT/AMED, Japan (cat #RCB2231).
Both Yamato-SS and HSSYII cell lines were treated with Compound 1 at 100 nM for 4 hours and analyzed by multiplexed quantitative proteomics. The x-axis illustrates the totality of the proteomics data and is labeled as fold change (FC) of Compound 1 vs vehicle in a Log 2 transformation scale. The statistical significance (T-test of treated vs. DMSO with Benjamini-Hochberg correction applied) of the observed changes is shown in the y-axis as negative Log 10 of the P-value. The horizontal dashed line marks the statistical significance (P-value ≤0.001) and the vertical line marks fold change ≥2.

[2] = Crystallization at room temperature by slow evaporation; type: physicochemical
Procedure: Based on approximate solubility results, about 10 mg of Compound 1 free form Pattern E was dissolved in suitable amount of solvents. Obtained suspensions or solutions were centrifuged. […] Solid residues were examined for their polymorphic form.

[3] = Crystallization under nitrogen flow by fast evaporation; type: physicochemical
Procedure: Based on approximate solubility results, about 10 mg of Compound 1 free form Pattern E was dissolved in suitable amount of solvents. […] Solid residues were examined for their polymorphic form.

COc1cc(-c2cn(C)c(=O)c(C)c2C)cc(OC)c1CN1CC[C@H](N2CCN(c3ccc(N[C@H]4CCC(=O)NC4=O)cc3F)CC2)C(F)(F)C1 [Compound 1, (S)-3-((4-(4-((S)-1-(2,6-dimethoxy-4-(1,4,5-trimethyl-6-oxo-1,6-dihydropyridin-3-yl)benzyl)-3,3-difluoropiperidin-4-yl)piperazin-1-yl)-3-fluorophenyl)amino)-piperidine-2,6-dione]
% BRD7 Remaining Relative to Vehicle Control at 24 hr, Mean (BRD7; 0.101 nM): 99.8%
% BRD7 Remaining Relative to Vehicle Control at 24 hr, Mean (BRD7; 0.318 nM): 101.3%
% BRD7 Remaining Relative to Vehicle Control at 24 hr, Mean (BRD7; 1.01 nM): 101.0%
% BRD7 Remaining Relative to Vehicle Control at 24 hr, Mean (BRD7; 3.17 nM): 99.8%
% BRD7 Remaining Relative to Vehicle Control at 24 hr, Mean (BRD7; 10.0 nM): 102.4%
% BRD7 Remaining Relative to Vehicle Control at 24 hr, Mean (BRD7; 31.7 nM): 103.4%
% BRD7 Remaining Relative to Vehicle Control at 24 hr, Mean (BRD7; 100 nM): 101.0%
% BRD7 Remaining Relative to Vehicle Control at 24 hr, Mean (BRD7; 317 nM): 102.3%
% BRD7 Remaining Relative to Vehicle Control at 24 hr, Mean (BRD7; 1000 nM): 106.3%
% BRD7 Remaining Relative to Vehicle Control at 24 hr, Mean (BRD7; 3161 nM): 117.4%
% BRD7 Remaining Relative to Vehicle Control at 24 hr, Mean (BRD7; 9990 nM): 143.3%
DC50 (BRD7; BRD7-HiBiT, 293T.167 cells, 24 hours, read-out: Mean DC50): > 10 µM
Emax (BRD7; BRD7-HiBiT, 293T.167 cells, 24 hours, read-out: Mean Emax (%) ± SD): 97.6 ± 6.41%
effect on the degradation of BRD7 (BRD7; concentrations up to 10 μM, 24 hours): no significant effect
DC50 (BRD7; summary statement, read-out: DC50 against BRD7): > 1 µM
ADAMST1 protein level decrease vs DMSO control [1]: 66.3%
BRD9 protein level decrease vs DMSO control [1]: 66.5%
Emax at 0.1 µM ([1]; read-out: ADAMST1 Emax): 33.7%
Emax at 0.1 µM ([1]; read-out: BRD9 Emax): 33.5%
Comments ([2]; slow evaporation at room temperature, 1,4-dioxane): Gel-like sample
Comments ([2]; slow evaporation at room temperature, 2-MeTHF): Gel-like sample
XRPD ([2]; slow evaporation at room temperature, Acetonitrile): Pattern A
Comments ([2]; slow evaporation at room temperature, Ethanol): Gel-like sample
XRPD ([2]; slow evaporation at room temperature, Ethyl acetate): Pattern F
Comments ([2]; slow evaporation at room temperature, THF): Jelly-like sample
Comments ([3]; fast evaporation under nitrogen flow, 1,4-dioxane): Gel-like sample
Comments ([3]; fast evaporation under nitrogen flow, 2-MeTHF): Gel-like sample
Comments ([3]; fast evaporation under nitrogen flow, Acetone): Gel-like sample
XRPD ([3]; fast evaporation under nitrogen flow, Acetonitrile): Pattern B
Comments ([3]; fast evaporation under nitrogen flow, DCM): Gel-like sample
Comments ([3]; fast evaporation under nitrogen flow, Ethanol): Gel-like sample
Comments ([3]; fast evaporation under nitrogen flow, Ethyl acetate): Gel-like sample
Comments ([3]; fast evaporation under nitrogen flow, THF): Gel-like sample
